pEC50, pKi: −log10 of the molar value. Like-named read-outs stand apart in the source and are kept apart here.
What was measured:
[1] = target: T1, human CB1 receptor (Homo sapiens, UniProt P21554); test: [35S] GTPγS binding on membranes of CHO cells expressing the human CB1 receptor (agonism); format: biochemical; set-up: expressed in transfected cells; membrane preparation
Outline: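 Membranes from human CB1-expressing CHO cells (5 μg/well) incubated with test compound and [35S]GTPγS in 50 mM Tris pH 7.4, 100 mM NaCl, 3 mM MgCl2, 0.2 mM EGTA, 0.04% BSA for 45 min at 37 °C. Bound label collected by filtration, scintillation counted; EC50 from curve fits.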

[2] = target: T1, human CB1 receptor; test: Human CB1 receptor binding, [3H] CP-55,940 displacement on HEK cell membranes; set-up: expressed in transfected cells; host or cells: HEK cells, doxycycline-induced; membrane preparation
Outline: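 Membranes from doxycycline-induced HEK cells expressing human CB1 incubated 60 min at room temperature with [3H] CP-55,940 (final […]) in 50 mM Tris pH 7.4, 100 mM NaCl, 3 mM MgCl2, 0.2 mM EGTA, 0.04% BSA. Nonspecific binding defined with 50 μM WIN-55,212-2; filtration and scintillation counting gave EC50 and Ki.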

[3] = GTPγS EC50, human CB1, CHO cell membranes
[4] = human CB1, CHO cell membranes, read-out: GTPγS EC50

T1 sequence (P21554 whole entry): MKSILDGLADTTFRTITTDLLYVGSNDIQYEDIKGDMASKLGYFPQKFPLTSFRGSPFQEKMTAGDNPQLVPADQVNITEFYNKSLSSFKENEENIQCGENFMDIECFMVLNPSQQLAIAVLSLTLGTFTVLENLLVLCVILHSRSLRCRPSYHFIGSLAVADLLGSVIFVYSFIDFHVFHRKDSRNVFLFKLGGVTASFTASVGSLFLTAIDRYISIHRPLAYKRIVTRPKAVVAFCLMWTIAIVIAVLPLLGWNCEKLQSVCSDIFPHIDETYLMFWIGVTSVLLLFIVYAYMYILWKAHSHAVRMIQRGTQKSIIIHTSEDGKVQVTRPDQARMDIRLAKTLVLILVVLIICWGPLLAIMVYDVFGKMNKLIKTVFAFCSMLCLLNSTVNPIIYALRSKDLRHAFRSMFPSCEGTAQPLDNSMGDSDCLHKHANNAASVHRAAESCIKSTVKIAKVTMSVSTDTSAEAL

Structure (SMILES)	pEC50 [1, 3]	pKi ([2]; CB1 Ki)	pEC50 [1, 4]	pKi ([2]; read-out: CB1 Ki)
CC(C)(C)[C@H](NC(=O)c1nn(Cc2ccc(F)cc2)c2c(F)c(F)ccc12)C(=O)NCCO [Example 324]	8.59	9.82	–	–
CC(C)(C)[C@H](NC(=O)c1nn(Cc2ccc(F)cc2)c2c(F)c(F)ccc12)C(=O)NC(CO)CO [Example 325]	8.27	8.71	–	–
CC(C)(C)[C@H](NC(=O)c1nn(Cc2ccc(F)cc2)c2c(F)c(F)ccc12)C(=O)NCCS(C)(=O)=O [Example 326]	7.27	7.80	–	–
CC(C)(C)[C@H](NC(=O)c1nn(Cc2ccc(F)cc2)c2c(F)c(F)ccc12)C(=O)NCCS(N)(=O)=O [Example 327]	7.74	8.38	–	–
CC(C)(C)[C@H](NC(=O)c1nn(Cc2ccc(F)cc2)c2c(F)c(F)ccc12)C(=O)NCc1nnc(C(N)=O)o1 [Example 328]	–	–	8.77	9.15
Cc1nnc(CNC(=O)[C@@H](NC(=O)c2nn(Cc3ccc(F)cc3)c3c(F)c(F)ccc23)C(C)(C)C)o1 [Example 329]	8.10	8.53	–	–
CC(C)(C)[C@H](NC(=O)c1nn(Cc2ccc(F)cc2)c2ccccc12)C(=O)N1CC(F)(F)C1 [Example 330]	9.39	9.70	–	–
CC(C)(C)[C@H](NC(=O)c1nn(Cc2ccc(F)cc2)c2ccccc12)C(=O)N1CCC(F)(F)C1 [Example 331]	8.00	8.66	–	–
CC(C)(C)[C@H](NC(=O)c1nn(Cc2ccc(F)cc2)c2ccccc12)C(=O)N1CCC(F)(F)CC1 [Example 332]	7.56	7.82	–	–
CC(C)(C)[C@H](NC(=O)c1nn(Cc2ccc(F)cc2)c2ccccc12)C(=O)N1CCCC(F)(F)C1 [Example 333]	8.43	8.83	–	–
CC(C)(C)[C@H](NC(=O)c1nn(Cc2ccc(F)cc2)c2ccccc12)C(=O)N1CCC(F)C1 (stereo partly drawn) [Example 334]	8.03	8.76	–	–
CC(C)(C)[C@H](NC(=O)c1nn(Cc2ccc(F)cc2)c2ccccc12)C(=O)N1CCC(C#N)CC1 [Example 335]	7.83	8.49	–	–
CC(C)(C)[C@H](NC(=O)c1nn(Cc2ccc(F)cc2)c2ccccc12)C(=O)N1CC(F)C1 [Example 336]	9.28	9.96	–	–
CC(C)(C)[C@H](NC(=O)c1nn(Cc2ccc(F)cc2)c2ccccc12)C(=O)N1CCC(F)(CO)CC1 [Example 337]	–	–	7.68	8.46
CC(C)(O)C1CCN(C(=O)[C@@H](NC(=O)c2nn(Cc3ccc(F)cc3)c3ccccc23)C(C)(C)C)CC1 [Example 338]	–	–	7.60	8.46
CC(C)(C)[C@H](NC(=O)c1nn(Cc2ccc(F)cc2)c2ccccc12)C(=O)NC1CCCOC1 (stereo partly drawn) [Example 339]	7.67	8.27	–	–
CC(C)(C)[C@H](NC(=O)c1nn(Cc2ccc(F)cc2)c2ccccc12)C(=O)N1CCC(F)CC1 [Example 341]	7.86	8.43	–	–
CC(C)(C)[C@H](NC(=O)c1nn(Cc2ccc(F)cc2)c2ccccc12)C(=O)N1CC[C@H]1C(N)=O [Example 344]	7.22	8.00	–	–
CC(C)(C)[C@H](NC(=O)c1nn(Cc2ccc(F)cc2)c2ccccc12)C(=O)N1CC(CNS(=O)(=O)C2CC2)C1 [Example 345]	–	–	8.77	9.21
CC(C)(C)[C@H](NC(=O)c1nn(Cc2ccc(F)cc2)c2ccccc12)C(=O)N1CC(CNC(N)=O)C1 [Example 346]	–	–	7.92	8.29
CC(C)(C)[C@H](NC(=O)c1nn(Cc2ccc(F)cc2)c2c(F)cccc12)C(=O)NCCS(N)(=O)=O [Example 348]	7.71	8.11	–	–
CC(C)(C)[C@H](NC(=O)c1nn(Cc2ccc(C#N)cc2)c2c(F)cccc12)C(=O)N1CC(C(N)=O)C1 [Example 352]	7.31	8.38	–	–
CC(C)(C)[C@H](NC(=O)c1nn(Cc2ccc(C#N)cc2)c2ccccc12)C(=O)N[C@H]1C[C@H](O)C1 [Example 354]	< 6.30	7.93	–	–
CC(C)(C)[C@H](NC(=O)c1nn(Cc2ccc(F)cc2)c2ccccc12)C(=O)NCCS(=O)(=O)N1CCOCC1 [Example 357]	–	–	7.31	8.53
CC(C)(C)[C@H](NC(=O)c1nn(Cc2ccc(C#N)cc2F)c2c(F)c(F)ccc12)C(N)=O [Example 358]	8.13	8.31	–	–
CC(C)(C)[C@H](NC(=O)c1nn(Cc2ccc(C#N)cc2F)c2c(F)c(F)ccc12)C(=O)NCc1nnc(C(N)=O)o1 [Example 365]	–	–	7.46	7.92
CC(C)(C)[C@H](NC(=O)c1nn(Cc2ccc(C#N)cc2F)c2c(F)cccc12)C(N)=O [Example 368]	8.34	8.70	–	–

Reference: patent US20110028447A1, “INDAZOLE DERIVATIVES” (Pfizer Inc., priority 2008, published 2011)
